Test results taken from ChEMBL document CHEMBL3045679, “Microwave-assisted synthesis and pharmacological studies of novel 5-deazaalloxazine derivatives” (2012).
Values after ≈ are worked out from the molar mass of the structure shown. Active and inactive are the calls of the source. The rule behind the calls is not given here.

Columns and labels:
Lipomyces lipofer [1] = assay: Antifungal activity against Lipomyces lipofer NCIM 3252 at 1000 ug/disk after 72 hr by disk diffusion method; format: functional; details: NCIM 3252, 72 h, read-out: DIZ
Lipomyces lipofer [2] = assay: Antifungal activity against Lipomyces lipofer NCIM 3252 at 500 ug/disk after 72 hr by disk diffusion method; format: functional; details: NCIM 3252, 72 h, read-out: DIZ
Candida albicans [3] = assay: Antifungal activity against Candida albicans NCIM 3471 at 1000 ug/disk after 72 hr by disk diffusion method; format: functional; details: for zone of inhibition at 1000 µg/disc: NCIM 3471, 72 h, read-out: DIZ
Candida albicans [4] = assay: Antifungal activity against Candida albicans NCIM 3471 at 500 ug/disk after 72 hr by disk diffusion method; format: functional
Rhodotorula mucilaginosa [5] = assay: Antifungal activity against Rhodotorula mucilaginosa NCIM 3174 at 1000 ug/disk after 72 hr by disk diffusion method; format: functional; details: NCIM 3174, 72 h, read-out: DIZ
Rhodotorula mucilaginosa [6] = assay: Antifungal activity against Rhodotorula mucilaginosa NCIM 3174 at 500 ug/disk after 72 hr by disk diffusion method; format: functional
Aspergillus flavus [7] = assay: Antifungal activity against Aspergillus flavus NCIM 535 at 1000 ug/disk after 72 hr by disk diffusion method; format: functional; details: for zone of inhibition at 1000 µg/disc: NCIM 535, 72 h, read-out: DIZ
Aspergillus flavus [8] = assay: Antifungal activity against Aspergillus flavus NCIM 535 at 500 ug/disk after 72 hr by disk diffusion method; format: functional
Aspergillus niger [9] = assay: Antifungal activity against Aspergillus niger NCIM 1196 at 1000 ug/disk after 72 hr by disk diffusion method; format: functional; details: for zone of inhibition at 1000 µg/disc: NCIM 1196, 72 h, read-out: DIZ
Aspergillus niger [10] = assay: Antifungal activity against Aspergillus niger NCIM 1196 at 500 ug/disk after 72 hr by disk diffusion method; format: functional
Penicillium chrysogenum [11] = assay: Antifungal activity against Penicillium chrysogenum NCIM 707 at 1000 ug/disk after 72 hr by disk diffusion method; format: functional; details: NCIM 707, 72 h, read-out: DIZ
Penicillium chrysogenum [12] = assay: Antifungal activity against Penicillium chrysogenum NCIM 707 at 500 ug/disk after 72 hr by disk diffusion method; format: functional
Streptomyces albus [13] = assay: Antibacterial activity against Streptomyces albus NCIM 2178 at 1000 ug/disk after 24 hr by disk diffusion method; format: functional
Streptomyces albus [14] = assay: Antibacterial activity against Streptomyces albus NCIM 2178 at 500 ug/disk after 24 hr by disk diffusion method; format: functional, organism-based
Bacillus cereus [15] = assay: Antibacterial activity against Bacillus cereus NCIM 2155 at 1000 ug/disk after 24 hr by disk diffusion method; format: functional; details: NCIM 2155, 24 h, read-out: DIZ
Bacillus cereus [16] = assay: Antibacterial activity against Bacillus cereus NCIM 2155 at 500 ug/disk after 24 hr by disk diffusion method; format: functional; details: for zone of inhibition at 500 µg/disc: NCIM 2155, 24 h, read-out: DIZ
Bacillus subtilis [17] = assay: Antibacterial activity against Bacillus subtilis NCIM 2063 at 1000 ug/disk after 24 hr by disk diffusion method; format: functional; details: NCIM 2063, 24 h, read-out: DIZ
Bacillus subtilis [18] = assay: Antibacterial activity against Bacillus subtilis NCIM 2063 at 500 ug/disk after 24 hr by disk diffusion method; format: functional
Klebsiella aerogenes [19] = assay: Antibacterial activity against Enterobacter aerogenes NCIM 2239 at 1000 ug/disk after 24 hr by disk diffusion method; format: functional; details: NCIM 2239, 24 h, read-out: DIZ
Klebsiella aerogenes [20] = assay: Antibacterial activity against Enterobacter aerogenes NCIM 2239 at 500 ug/disk after 24 hr by disk diffusion method; format: functional; details: for zone of inhibition at 500 µg/disc: NCIM 2239, 24 h, read-out: DIZ
Pseudomonas aeruginosa [21] = assay: Antibacterial activity against Pseudomonas aeruginosa NCIM 2200 at 1000 ug/disk after 24 hr by disk diffusion method; format: functional; details: NCIM 2200, 24 h, read-out: DIZ
Pseudomonas aeruginosa [22] = assay: Antibacterial activity against Pseudomonas aeruginosa NCIM 2200 at 500 ug/disk after 24 hr by disk diffusion method; format: functional; details: NCIM 2200, 24 h, read-out: DIZ
Escherichia coli [23] = assay: Antibacterial activity against Escherichia coli NCIM 2065 at 1000 ug/disk after 24 hr by disk diffusion method; format: functional; details: NCIM 2065, 24 h, read-out: DIZ
Escherichia coli [24] = assay: Antibacterial activity against Escherichia coli NCIM 2065 at 500 ug/disk after 24 hr by disk diffusion method; format: functional; details: NCIM 2065, 24 h, read-out: DIZ
Bacillus subtilis [25] = assay: Antibacterial activity against Bacillus subtilis NCIM 2063 after 24 hr by broth dilution assay; format: functional; details: NCIM 2063, 24 h
Klebsiella aerogenes [26] = assay: Antibacterial activity against Enterobacter aerogenes NCIM 2239 after 24 hr by broth dilution assay; format: functional; details: NCIM 2239, 24 h
Pseudomonas aeruginosa [27] = assay: Antibacterial activity against Pseudomonas aeruginosa NCIM 2200 after 24 hr by broth dilution assay; format: functional; details: NCIM 2200, 24 h
Escherichia coli [28] = assay: Antibacterial activity against Escherichia coli NCIM 2065 after 24 hr by broth dilution assay; format: functional; details: NCIM 2065, 24 h
Lipomyces lipofer [29] = assay: Antifungal activity against Lipomyces lipofer NCIM 3252 after 72 hr by broth dilution assay; format: functional; details: NCIM 3252, 72 h
Candida albicans [30] = assay: Antifungal activity against Candida albicans NCIM 3471 after 72 hr by broth dilution assay; format: functional; details: NCIM 3471, 72 h
Rhodotorula mucilaginosa [31] = assay: Antifungal activity against Rhodotorula mucilaginosa NCIM 3174 after 72 hr by broth dilution assay; format: functional; details: NCIM 3174, 72 h
Penicillium chrysogenum [32] = assay: Antifungal activity against Penicillium chrysogenum NCIM 707 after 72 hr by broth dilution assay; format: functional; details: NCIM 707, 72 h
Bacillus cereus [33] = assay: Antibacterial activity against Bacillus cereus NCIM 2155 after 24 hr by broth dilution assay; format: functional; details: NCIM 2155, 24 h
Aspergillus niger [34] = assay: Antifungal activity against Aspergillus niger NCIM 1196 after 72 hr by broth dilution assay; format: functional; details: NCIM 1196, 72 h
Aspergillus flavus [35] = assay: Antifungal activity against Aspergillus flavus NCIM 535 after 72 hr by broth dilution assay; format: functional; details: NCIM 535, 72 h
Streptomyces albus [36] = assay: Antibacterial activity against Streptomyces albus NCIM 2178 after 24 hr by broth dilution assay; format: functional; details: NCIM 2178, 24 h

| MIC (Bacillus subtilis [25]) | MIC (Klebsiella aerogenes [26]) | MIC (Pseudomonas aeruginosa [27]) | MIC (Escherichia coli [28]) | MIC (Lipomyces lipofer [29]) | MIC (Penicillium chrysogenum [32]) | MIC (Bacillus cereus [33]) | SMILES | zone of inhibition at 1000 µg/disc (Lipomyces lipofer [1]) | zone of inhibition at 500 µg/disc (Lipomyces lipofer [2]) | zone of inhibition at 1000 µg/disc (Rhodotorula mucilaginosa [5]) | zone of inhibition at 1000 µg/disc (Penicillium chrysogenum [11]) | diameter of the inhibition zone (DIZ) (Streptomyces albus [14]) | zone of inhibition at 1000 µg/disc (Bacillus cereus [15]) | zone of inhibition at 1000 µg/disc (Bacillus subtilis [17]) | diameter of the inhibition zone (DIZ) (Bacillus subtilis [18]) | zone of inhibition at 1000 µg/disc (Klebsiella aerogenes [19]) | zone of inhibition at 1000 µg/disc (Pseudomonas aeruginosa [21]) | zone of inhibition at 500 µg/disc (Pseudomonas aeruginosa [22]) | zone of inhibition at 1000 µg/disc (Escherichia coli [23]) | zone of inhibition at 500 µg/disc (Escherichia coli [24]) | further results |
| --- | --- | --- | --- | --- | --- | --- | --- | --- | --- | --- | --- | --- | --- | --- | --- | --- | --- | --- | --- | --- | --- |
| 62.5 µg/mL (≈ 257 µM) | 3.9 µg/mL (≈ 16 µM) | 31.2 µg/mL (≈ 128 µM) | 7.8 µg/mL (≈ 32.1 µM) | 31.2 µg/mL (≈ 128 µM) | 62.5 µg/mL (≈ 257 µM) | 31.2 µg/mL (≈ 128 µM) | COc1ccc2nc3[nH]c(=O)[nH]c(=O)c3cc2c1 | 11 mm | 9 mm | 10 mm | 9 mm | inactive | 12 mm | 9 mm | inactive | 13 mm | 13 mm | 9 mm | 12 mm | 10 mm | zone of inhibition at 1000 µg/disc (Candida albicans [3]): 10 mm; zone of inhibition at 500 µg/disc (Candida albicans [4]; NCIM 3471, 72 h, read-out: DIZ): 9 mm; diameter of the inhibition zone (DIZ) (Rhodotorula mucilaginosa [6]): inactive; zone of inhibition at 1000 µg/disc (Aspergillus flavus [7]): 9 mm; diameter of the inhibition zone (DIZ) (Aspergillus flavus [8]): inactive; diameter of the inhibition zone (DIZ) (Aspergillus niger [9]): inactive; diameter of the inhibition zone (DIZ) (Aspergillus niger [10]): inactive; diameter of the inhibition zone (DIZ) (Penicillium chrysogenum [12]): inactive; diameter of the inhibition zone (DIZ) (Streptomyces albus [13]): inactive; zone of inhibition at 500 µg/disc (Bacillus cereus [16]): 9 mm; zone of inhibition at 500 µg/disc (Klebsiella aerogenes [20]): 10 mm; MIC (Candida albicans [30]): 31.2 µg/mL (≈ 128 µM); MIC (Rhodotorula mucilaginosa [31]): 15.6 µg/mL (≈ 64.1 µM) |
| 62.5 µg/mL (≈ 241 µM) | 15.6 µg/mL (≈ 60.2 µM) | 3.9 µg/mL (≈ 15 µM) | 31.2 µg/mL (≈ 120 µM) | 125 µg/mL (≈ 482 µM) | 125 µg/mL (≈ 482 µM) | 125 µg/mL (≈ 482 µM) | COc1ccc2nc3[nH]c(=S)[nH]c(=O)c3cc2c1 | 12 mm | 11 mm | 8 mm | 12 mm | inactive | 10 mm | 11 mm | inactive | 13 mm | 15 mm | 9 mm | 13 mm | 9 mm | diameter of the inhibition zone (DIZ) (Candida albicans [3]): inactive; diameter of the inhibition zone (DIZ) (Candida albicans [4]): inactive; diameter of the inhibition zone (DIZ) (Rhodotorula mucilaginosa [6]): inactive; diameter of the inhibition zone (DIZ) (Aspergillus flavus [7]): inactive; diameter of the inhibition zone (DIZ) (Aspergillus flavus [8]): inactive; zone of inhibition at 1000 µg/disc (Aspergillus niger [9]): 13 mm; zone of inhibition at 500 µg/disc (Aspergillus niger [10]; NCIM 1196, 72 h, read-out: DIZ): 11 mm; diameter of the inhibition zone (DIZ) (Penicillium chrysogenum [12]): inactive; diameter of the inhibition zone (DIZ) (Streptomyces albus [13]): inactive; diameter of the inhibition zone (DIZ) (Bacillus cereus [16]): inactive; diameter of the inhibition zone (DIZ) (Klebsiella aerogenes [20]): inactive; MIC (Aspergillus niger [34]): 7.8 µg/mL (≈ 30.1 µM) |
| 62.5 µg/mL (≈ 273 µM) | 3.9 µg/mL (≈ 17 µM) | 31.2 µg/mL (≈ 136 µM) | 31.2 µg/mL (≈ 136 µM) | 125 µg/mL (≈ 545 µM) | 7.8 µg/mL (≈ 34 µM) | 31.2 µg/mL (≈ 136 µM) | O=c1[nH]c(=S)[nH]c2nc3ccccc3cc12 | 12 mm | 9 mm | 12 mm | 12 mm | inactive | 11 mm | 10 mm | inactive | 13 mm | 11 mm | 10 mm | 10 mm | 9 mm | zone of inhibition at 1000 µg/disc (Candida albicans [3]): 11 mm; diameter of the inhibition zone (DIZ) (Candida albicans [4]): inactive; zone of inhibition at 500 µg/disc (Rhodotorula mucilaginosa [6]; NCIM 3174, 72 h, read-out: DIZ): 10 mm; zone of inhibition at 1000 µg/disc (Aspergillus flavus [7]): 15 mm; zone of inhibition at 500 µg/disc (Aspergillus flavus [8]; NCIM 535, 72 h, read-out: DIZ): 9 mm; zone of inhibition at 1000 µg/disc (Aspergillus niger [9]): 10 mm; diameter of the inhibition zone (DIZ) (Aspergillus niger [10]): inactive; zone of inhibition at 500 µg/disc (Penicillium chrysogenum [12]; NCIM 707, 72 h, read-out: DIZ): 10 mm; zone of inhibition at 1000 µg/disc (Streptomyces albus [13]; NCIM 2178, 24 h, read-out: DIZ): 12 mm; zone of inhibition at 500 µg/disc (Bacillus cereus [16]): 8 mm; zone of inhibition at 500 µg/disc (Klebsiella aerogenes [20]): 10 mm; MIC (Candida albicans [30]): 125 µg/mL (≈ 545 µM); MIC (Rhodotorula mucilaginosa [31]): 15.6 µg/mL (≈ 68 µM); MIC (Aspergillus flavus [35]): 7.8 µg/mL (≈ 34 µM); MIC (Streptomyces albus [36]): 62.5 µg/mL (≈ 273 µM) |
